Reference: article PMC8131106 (eLife, 2021)

How the values were obtained:
LeuT [1] = target: T1, LeuT (Aquifex aeolicus, UniProt O67854, R375A); assay: X-ray crystal structure, […] A; type: binding; conditions: Na+ bound, outward-facing occluded
T1 construct: gene snf; pET16b, C-terminal 8xHis tag removed with thrombin, expressed in E. coli C41/C43(DE3), purified in DDM then OG; Cys pairs with spin labels for DEER

LeuT [2] = target: T2, LeuT (Aquifex aeolicus, UniProt O67854, R375D); assay: X-ray crystal structure, […] A; type: binding; conditions: Na+ bound, outward-facing occluded
T2 construct: gene snf; pET16b, C-terminal 8xHis tag removed with thrombin, expressed in E. coli C41/C43(DE3), purified in DDM then OG; Cys pairs with spin labels for DEER

LeuT [3] = target: T3, LeuT (Aquifex aeolicus, UniProt O67854); assay: X-ray crystal structure, […] A; type: binding; conditions: Na+ bound, outward-facing occluded
T3 construct: gene snf; pET16b, C-terminal 8xHis tag removed with thrombin, expressed in E. coli C41/C43(DE3), purified in DDM then OG; Cys pairs with spin labels for DEER

LeuT [4] = target: T4, LeuT (Aquifex aeolicus, UniProt O67854, R375D, form not given); assay: DEER EPR distance distributions; type: binding; conditions: […] NaCl, fourfold molar excess of Leu; each spin-label pair in its own construct (pair also printed as […])
T4 construct: gene snf; pET16b, C-terminal 8xHis tag removed with thrombin, expressed in E. coli C41/C43(DE3), purified in DDM then OG; Cys pairs with spin labels for DEER

LeuT [5] = target: T5, LeuT (Aquifex aeolicus, UniProt O67854, H7C/R86C/A309C, form not given); assay: DEER EPR distance distributions; type: binding; conditions: […] NaCl, fourfold molar excess of Leu; each spin-label pair in its own construct (pair also printed as […])
T5 construct: gene snf; pET16b, C-terminal 8xHis tag removed with thrombin, expressed in E. coli C41/C43(DE3), purified in DDM then OG; Cys pairs with spin labels for DEER

dDAT = target: T6, dDAT (Drosophila melanogaster, UniProt Q7K4Y6); conditions: […] min, room temperature, labelled compound
T6 construct: gene DAT

[6] = substrate: NCCc1ccc(O)c(O)c1; assay: cells, lysate or membranes; conditions: pH […]-7.[…] min, […] DA, labelled compound

T6 sequence (Q7K4Y6 whole entry): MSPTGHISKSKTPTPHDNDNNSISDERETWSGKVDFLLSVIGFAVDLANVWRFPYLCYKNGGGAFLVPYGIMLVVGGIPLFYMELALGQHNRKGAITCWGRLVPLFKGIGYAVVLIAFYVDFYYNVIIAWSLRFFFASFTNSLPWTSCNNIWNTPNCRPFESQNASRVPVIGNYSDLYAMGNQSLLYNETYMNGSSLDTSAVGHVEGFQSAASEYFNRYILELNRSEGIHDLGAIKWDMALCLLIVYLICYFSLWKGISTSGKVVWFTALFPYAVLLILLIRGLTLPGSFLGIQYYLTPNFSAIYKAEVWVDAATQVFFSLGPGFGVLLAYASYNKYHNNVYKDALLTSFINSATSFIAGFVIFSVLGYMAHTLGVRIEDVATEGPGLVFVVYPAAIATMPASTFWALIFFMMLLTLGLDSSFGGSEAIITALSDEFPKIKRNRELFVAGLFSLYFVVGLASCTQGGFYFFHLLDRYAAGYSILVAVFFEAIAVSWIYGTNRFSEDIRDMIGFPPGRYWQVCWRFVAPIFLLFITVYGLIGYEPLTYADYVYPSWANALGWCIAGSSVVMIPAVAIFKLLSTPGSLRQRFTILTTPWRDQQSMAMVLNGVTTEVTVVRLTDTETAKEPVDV

C[C@H](N)C(=O)O [L-Ala]
X-ray crystal structure, 2.1 A (LeuT [1]): LeuT WT, LeuT R375A, and LeuT R375D solved in the L-Ala and Na^+ bound OO conformation
X-ray crystal structure, 2.6 A (LeuT [2]): LeuT WT, LeuT R375A, and LeuT R375D solved in the L-Ala and Na^+ bound OO conformation
X-ray crystal structure, 2.1 A (LeuT [3]): L-Ala, Na1, and Na2 (purple spheres) could be modeled into their respective binding sites

CC(C)C[C@H](N)C(=O)O [Leu]
DEER EPR distance distributions (LeuT [4]): Na^+/Leu resets the IC gate to the IO conformation
DEER EPR distance distributions (LeuT [5]): Leu binding to Na^+-bound LeuT restores the conformational preference to the OO form

NCCc1ccc(O)c(O)c1 [dopamine]
[3H]DA uptake, intact fly brains (dDAT): uptake of [^3H]DA in hDAT WT Drosophila brains was not significantly different from that measured in dDAT

B1: hDAT (Homo sapiens) (protein)
chain: MSKSKCSVGLMSSVVAPAKEPNAVGPKEVELILVKEQNGVQLTSSTLTNPRQSPVEAQDRETWGKKIDFLLSVIGFAVDLANVWRFPYLCYKNGGGAFLVPYLLFMVIAGMPLFYMELALGQFNREGAAGVWKICPILKGVGFTVILISLYVGFFYNVIIAWALHYLFSSFTTELPWIHCNNSWNSPNCSDAHPGDSSGDSSGLNDTFGTTPAAEYFERGVLHLHQSHGIDDLGPPRWQLTACLVLVIVLLYFSLWKGVKTSGKVVWITATMPYVVLTALLLRGVTLPGAIDGIRAYLSVDFYRLCEASVWIDAATQVCFSLGVGFGVLIAFSSYNKFTNNCYRDAIVTTSINSLTSFSSGFVVFSFLGYMAQKHSVPIGDVAKDGPGLIFIIYPEAIATLPLSSAWAVVFFIMLLTLGIDSAMGGMESVITGLIDEFQLLHRHRELFTLFIVLATFLLSLFCVTNGGIYVFTLLDHFAAGTSILFGVLIEAIGVAWFYGVGQFSDDIQQMTGQRPSLYWRLCWKLVSPCFLLFVVVVSIVTFRPPHYGAYIFPDWANALGWVIATSSMAMVPIYAAYKFCSLPGSFREKLAYAIAPEKDRELVDRGEVRQFTLRHWLKV
Km [6]: 5.7 ± 1.4 µM

B2: hDAT (Homo sapiens; R445C) (protein)
chain: MSKSKCSVGLMSSVVAPAKEPNAVGPKEVELILVKEQNGVQLTSSTLTNPRQSPVEAQDRETWGKKIDFLLSVIGFAVDLANVWRFPYLCYKNGGGAFLVPYLLFMVIAGMPLFYMELALGQFNREGAAGVWKICPILKGVGFTVILISLYVGFFYNVIIAWALHYLFSSFTTELPWIHCNNSWNSPNCSDAHPGDSSGDSSGLNDTFGTTPAAEYFERGVLHLHQSHGIDDLGPPRWQLTACLVLVIVLLYFSLWKGVKTSGKVVWITATMPYVVLTALLLRGVTLPGAIDGIRAYLSVDFYRLCEASVWIDAATQVCFSLGVGFGVLIAFSSYNKFTNNCYRDAIVTTSINSLTSFSSGFVVFSFLGYMAQKHSVPIGDVAKDGPGLIFIIYPEAIATLPLSSAWAVVFFIMLLTLGIDSAMGGMESVITGLIDEFQLLHRHCELFTLFIVLATFLLSLFCVTNGGIYVFTLLDHFAAGTSILFGVLIEAIGVAWFYGVGQFSDDIQQMTGQRPSLYWRLCWKLVSPCFLLFVVVVSIVTFRPPHYGAYIFPDWANALGWVIATSSMAMVPIYAAYKFCSLPGSFREKLAYAIAPEKDRELVDRGEVRQFTLRHWLKV
Km [6]: 0.10 ± 0.07 µM
